Columns and labels:
[1] = tested on: aldose reductase; experiment: inhibition of aldose reductase enzyme activity; assay type: biochemical; conditions: partially purified aldose reductase from calf lens
Description: (§1) The activity of the compounds of the present invention as agents for the control of chronic diabetic complications may be determined by a number of standard biological or pharmacological tests. Suitable tests include (1) measuring their ability to inhibit the enzyme activity of isolated aldose reductase; (2) measuring their ability to reduce or inhibit sorbitol accumulation in the sciatic nerve of acutely streptozotocinized (i.e. diabetic) rats; (3) measuring their ability to reverse already-elevated sorbitol levels in the sciatic nerve and lens of chronic streptozotocin-induced diabetic rats; (4) measuring their ability to prevent or inhibit galactitol formation in the lens of acutely galactosemic rats; and (5) measuring their ability to delay cataract formation and reduce the severity of lens opacities in chronic galactosemic rats.
The compounds of Examples 3 and 6 were tested for their ability to reduce or inhibit aldose reductase enzyme activity, following the procedure described in U.S. Pat. No. 3,821,383 and based on the procedure of Hayman et. al., Journal of Biological Chemistry, 240, 877 (1965). The substrate employed was partially purified aldose reductase enzyme obtained from calf lens. The results obtained with each compound at a concentration of 10^-4 M are expressed as percent inhibition of enzyme activity.

[2] = tested on: sorbitol accumulation in the sciatic nerve; experiment: inhibition of sorbitol accumulation in the sciatic nerve of streptozotocinized (diabetic) rats; assay type: in vivo, rat; conditions: measured 27 h after induction of diabetes, vs untreated
Description: as §1
The compounds of Examples 3 and 6 were tested for their ability to reduce or inhibit sorbitol accumulation in the sciatic nerve of streptozotocinized (i.e. diabetic) rats by the procedure essentially described in U.S. Pat. No. 3,821,383. In the present study, the amount of sorbitol accumulation in the sciatic nerves was measured 27 hours after induction of diabetes. The compounds were administered orally at the dose levels indicated at 4, 8 and 24 hours following the administration of streptozotocin. […]

% Inhibition at 10^-4 M (aldose reductase enzyme activity) [1] [%] | Structure (SMILES) | % Inhibition (sorbitol accumulation in sciatic nerve) ([2]; 10 mg/kg oral at 4, 8 and 24 h after streptozotocin) [%] | % Inhibition (sorbitol accumulation in sciatic nerve) ([2]; 1.5 mg/kg oral at 4, 8 and 24 h after streptozotocin) [%]
94 | O=C1NC(=O)C2(CCOc3c2ccc2ncccc32)N1 (stereo not shown) [Example 6] | 92 | –
75 | O=C1NC(=O)C2(CCOc3c2ccc2cccnc32)N1 (stereo not shown) [Example 3] | – | 27
